Results from ChEMBL document CHEMBL1201862, “PubChem BioAssay data set” (2004).
Where “and” joins values, the source holds several entries; their conditions need not be identical. Identical values can stand only once. Calls of active or inactive are those of the source.

Assays:
[1] = system: Streptococcus sp. 'group A'; assay: growth inhibition of control SK(-) GAS strain, dose response, counter-screen for streptokinase expression inhibitor project, luminescence, kanamycin, BacTiterGlo, confirmation (AID 1900); format: functional, organism-based
[2] = C. albicans growth with fluconazole, confirmation, fluorescence, retest (AID 2467); format: functional, cell-based
[3] = cytotoxicity toward NIH3T3 fibroblasts, dose response, counter-screen, cell-based, ATP luminescence, mouse fibroblasts (AID 2010); format: functional;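 further: cells exposed to compound for about 90 hours before reading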
Streptococcus = assay: Group A Streptococcus viability loss, dose response, counter-screen for streptokinase expression inhibitor project, luminescence, BacTiterGlo (AID 1915); format: functional, organism-based;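 further: potency for reduction of bacterial viability or growth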
[4] = target: T1, Calpain-2 catalytic subunit (Sus scrofa, UniProt P43367); assay: pig calpain II inhibitor potency, dose response, biochemical, fluorogenic peptide substrate (AID 1420); format: functional
T1 sequence (P43367 whole entry): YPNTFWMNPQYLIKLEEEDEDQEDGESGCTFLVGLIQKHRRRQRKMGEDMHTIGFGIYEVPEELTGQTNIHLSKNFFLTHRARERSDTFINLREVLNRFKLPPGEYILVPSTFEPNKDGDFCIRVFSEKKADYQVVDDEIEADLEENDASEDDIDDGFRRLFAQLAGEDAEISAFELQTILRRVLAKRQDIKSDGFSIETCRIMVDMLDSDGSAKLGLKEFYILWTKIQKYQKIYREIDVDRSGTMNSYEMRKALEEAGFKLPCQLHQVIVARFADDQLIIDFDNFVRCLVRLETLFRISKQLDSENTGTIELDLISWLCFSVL

Streptokinase A = target: T2, Streptokinase A (Streptococcus pyogenes serotype M1, UniProt P10520); assay: S. pyogenes streptokinase expression inhibitors, potency, dose response, plasminogen activation absorbance, OD405 (AID 1914); format: functional, Streptococcus pyogenes M1 GAS;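 further: secreted streptokinase activity via plasminogen activation per viability signal from cell pellet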
T2 sequence (P10520 whole entry): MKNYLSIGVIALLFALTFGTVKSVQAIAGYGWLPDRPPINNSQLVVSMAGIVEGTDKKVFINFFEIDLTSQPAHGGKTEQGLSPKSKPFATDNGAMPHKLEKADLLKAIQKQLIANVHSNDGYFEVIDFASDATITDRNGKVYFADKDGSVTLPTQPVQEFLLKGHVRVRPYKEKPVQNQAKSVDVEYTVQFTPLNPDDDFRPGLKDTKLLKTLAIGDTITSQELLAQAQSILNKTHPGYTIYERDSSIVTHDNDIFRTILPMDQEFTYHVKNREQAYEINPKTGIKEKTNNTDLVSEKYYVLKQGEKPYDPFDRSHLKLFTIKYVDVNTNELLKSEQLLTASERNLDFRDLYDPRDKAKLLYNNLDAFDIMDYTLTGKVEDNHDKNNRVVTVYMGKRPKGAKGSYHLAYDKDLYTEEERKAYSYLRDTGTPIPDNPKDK

[5] = target: Peroxisome proliferator-activated receptor gamma/Nuclear receptor coactivator 1 (Homo sapiens, UniProt P37231); format: functional;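 further: agonist potency as compounds enhance coactivator SRC-1 recruitment to PPARgamma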
[6] = growth suppression of beta-catenin-knockout colon cells, dose response, cell-based, HCT116, human colon tumor (AID 1045); format: functional;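 further: HCT116 colon tumor cells with beta catenin knocked out; cells exposed to compound for 60 hours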
[7] = target: Voltage-gated N-type calcium channel alpha-1B subunit/Amyloid beta A4 precursor protein-binding family A member 1 (Homo sapiens, UniProt Q00975+Q02410); format: protein assay
[8] = target: T3, Histone-lysine N-methyltransferase NSD2 (Homo sapiens, UniProt O96028); format: biochemical
T3 sequence (O96028 whole entry): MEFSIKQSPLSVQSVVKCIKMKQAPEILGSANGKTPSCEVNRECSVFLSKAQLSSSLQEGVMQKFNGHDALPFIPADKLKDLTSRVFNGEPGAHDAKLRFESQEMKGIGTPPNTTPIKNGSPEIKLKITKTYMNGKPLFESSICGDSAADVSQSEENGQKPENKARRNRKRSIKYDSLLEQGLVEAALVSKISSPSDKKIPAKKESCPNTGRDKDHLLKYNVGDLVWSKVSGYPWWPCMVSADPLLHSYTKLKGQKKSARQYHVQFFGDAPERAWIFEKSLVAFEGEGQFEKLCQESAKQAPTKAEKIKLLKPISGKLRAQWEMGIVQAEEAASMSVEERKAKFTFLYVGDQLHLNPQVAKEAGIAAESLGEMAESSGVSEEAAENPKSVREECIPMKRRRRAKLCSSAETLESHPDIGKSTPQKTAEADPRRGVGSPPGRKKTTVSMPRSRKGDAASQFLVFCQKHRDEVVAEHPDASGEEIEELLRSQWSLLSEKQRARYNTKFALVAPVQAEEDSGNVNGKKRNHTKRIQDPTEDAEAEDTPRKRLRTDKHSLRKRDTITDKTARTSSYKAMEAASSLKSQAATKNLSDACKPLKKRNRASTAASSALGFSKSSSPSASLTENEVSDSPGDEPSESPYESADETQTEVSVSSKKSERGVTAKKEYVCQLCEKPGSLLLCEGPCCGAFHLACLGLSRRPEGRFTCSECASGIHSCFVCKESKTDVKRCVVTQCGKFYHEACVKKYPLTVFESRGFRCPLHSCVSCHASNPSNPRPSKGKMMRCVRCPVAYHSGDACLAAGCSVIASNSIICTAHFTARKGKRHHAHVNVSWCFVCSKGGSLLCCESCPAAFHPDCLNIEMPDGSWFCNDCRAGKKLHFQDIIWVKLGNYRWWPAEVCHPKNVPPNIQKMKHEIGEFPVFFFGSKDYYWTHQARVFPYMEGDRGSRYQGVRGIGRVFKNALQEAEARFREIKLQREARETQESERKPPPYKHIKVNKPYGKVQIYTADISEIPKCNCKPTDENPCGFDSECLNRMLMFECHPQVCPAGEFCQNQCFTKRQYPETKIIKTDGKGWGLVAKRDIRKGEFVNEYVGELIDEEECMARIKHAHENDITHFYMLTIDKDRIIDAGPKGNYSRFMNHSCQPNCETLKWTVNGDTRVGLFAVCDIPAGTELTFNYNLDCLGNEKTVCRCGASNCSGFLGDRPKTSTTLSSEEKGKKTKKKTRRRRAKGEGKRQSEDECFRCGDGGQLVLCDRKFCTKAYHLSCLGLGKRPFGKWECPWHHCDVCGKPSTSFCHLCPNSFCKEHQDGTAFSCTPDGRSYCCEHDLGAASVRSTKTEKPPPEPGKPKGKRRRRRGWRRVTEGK

Chain of Voltage-gated N-type calcium channel alpha-1B subunit/Amyloid beta A4 precursor protein-binding family A member 1 (Q00975 whole entry): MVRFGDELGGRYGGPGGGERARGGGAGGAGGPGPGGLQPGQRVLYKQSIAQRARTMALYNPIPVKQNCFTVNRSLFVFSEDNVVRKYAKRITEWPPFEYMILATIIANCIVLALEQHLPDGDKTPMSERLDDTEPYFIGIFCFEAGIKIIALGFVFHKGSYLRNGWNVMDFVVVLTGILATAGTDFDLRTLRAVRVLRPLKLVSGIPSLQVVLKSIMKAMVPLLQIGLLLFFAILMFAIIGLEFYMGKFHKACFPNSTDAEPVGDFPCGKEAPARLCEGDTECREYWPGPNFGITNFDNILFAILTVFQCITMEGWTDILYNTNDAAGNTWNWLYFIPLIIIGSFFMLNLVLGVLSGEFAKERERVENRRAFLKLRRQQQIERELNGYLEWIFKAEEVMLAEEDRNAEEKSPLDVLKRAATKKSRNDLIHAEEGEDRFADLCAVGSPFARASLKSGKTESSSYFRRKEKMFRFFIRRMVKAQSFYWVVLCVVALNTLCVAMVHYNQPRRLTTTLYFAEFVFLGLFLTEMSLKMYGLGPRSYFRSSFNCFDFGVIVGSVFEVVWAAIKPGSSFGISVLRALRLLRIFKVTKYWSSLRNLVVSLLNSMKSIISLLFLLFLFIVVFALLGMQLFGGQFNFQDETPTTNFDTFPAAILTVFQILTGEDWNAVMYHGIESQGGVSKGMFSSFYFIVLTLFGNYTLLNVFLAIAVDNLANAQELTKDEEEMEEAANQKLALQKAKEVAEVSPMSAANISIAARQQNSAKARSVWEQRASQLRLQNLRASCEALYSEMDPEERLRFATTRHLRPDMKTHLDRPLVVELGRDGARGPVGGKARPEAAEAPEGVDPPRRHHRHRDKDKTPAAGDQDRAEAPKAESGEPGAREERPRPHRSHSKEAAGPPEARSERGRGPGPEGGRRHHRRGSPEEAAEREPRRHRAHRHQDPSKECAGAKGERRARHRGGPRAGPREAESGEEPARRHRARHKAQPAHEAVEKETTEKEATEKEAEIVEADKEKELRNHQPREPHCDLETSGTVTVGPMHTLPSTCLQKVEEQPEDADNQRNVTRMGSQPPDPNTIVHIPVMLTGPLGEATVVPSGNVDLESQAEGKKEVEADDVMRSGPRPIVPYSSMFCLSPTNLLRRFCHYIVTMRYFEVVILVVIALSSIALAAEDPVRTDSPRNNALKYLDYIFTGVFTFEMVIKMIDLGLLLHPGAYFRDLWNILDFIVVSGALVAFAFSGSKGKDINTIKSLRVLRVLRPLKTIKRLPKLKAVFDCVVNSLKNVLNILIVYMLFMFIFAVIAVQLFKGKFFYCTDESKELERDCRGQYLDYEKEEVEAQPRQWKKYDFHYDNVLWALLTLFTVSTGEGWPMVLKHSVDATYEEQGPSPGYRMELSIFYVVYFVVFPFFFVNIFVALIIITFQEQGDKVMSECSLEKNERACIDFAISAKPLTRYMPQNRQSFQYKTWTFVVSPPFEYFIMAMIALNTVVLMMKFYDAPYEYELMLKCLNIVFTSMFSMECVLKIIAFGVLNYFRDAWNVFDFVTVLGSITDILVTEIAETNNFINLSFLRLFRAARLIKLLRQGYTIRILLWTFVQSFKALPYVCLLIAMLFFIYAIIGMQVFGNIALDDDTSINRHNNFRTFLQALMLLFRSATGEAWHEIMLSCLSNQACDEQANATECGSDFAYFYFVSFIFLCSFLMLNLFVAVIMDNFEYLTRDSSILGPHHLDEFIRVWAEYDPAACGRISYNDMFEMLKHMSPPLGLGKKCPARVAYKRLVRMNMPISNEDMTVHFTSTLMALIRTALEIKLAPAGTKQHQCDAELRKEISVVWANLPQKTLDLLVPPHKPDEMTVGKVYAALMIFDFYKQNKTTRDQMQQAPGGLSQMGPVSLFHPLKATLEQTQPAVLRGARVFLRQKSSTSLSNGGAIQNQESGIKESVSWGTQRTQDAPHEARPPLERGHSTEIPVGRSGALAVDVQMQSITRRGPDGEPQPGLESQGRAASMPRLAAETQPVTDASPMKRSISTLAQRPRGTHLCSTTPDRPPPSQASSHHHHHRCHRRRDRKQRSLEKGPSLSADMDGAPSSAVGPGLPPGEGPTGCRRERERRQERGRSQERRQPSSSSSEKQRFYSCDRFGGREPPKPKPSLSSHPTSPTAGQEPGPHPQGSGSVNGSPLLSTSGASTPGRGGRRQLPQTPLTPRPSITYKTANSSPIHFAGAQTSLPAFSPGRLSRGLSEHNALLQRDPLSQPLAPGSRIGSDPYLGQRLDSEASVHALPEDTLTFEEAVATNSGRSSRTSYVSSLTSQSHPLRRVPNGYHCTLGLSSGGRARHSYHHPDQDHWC
Chain of Voltage-gated N-type calcium channel alpha-1B subunit/Amyloid beta A4 precursor protein-binding family A member 1 (Q02410 whole entry): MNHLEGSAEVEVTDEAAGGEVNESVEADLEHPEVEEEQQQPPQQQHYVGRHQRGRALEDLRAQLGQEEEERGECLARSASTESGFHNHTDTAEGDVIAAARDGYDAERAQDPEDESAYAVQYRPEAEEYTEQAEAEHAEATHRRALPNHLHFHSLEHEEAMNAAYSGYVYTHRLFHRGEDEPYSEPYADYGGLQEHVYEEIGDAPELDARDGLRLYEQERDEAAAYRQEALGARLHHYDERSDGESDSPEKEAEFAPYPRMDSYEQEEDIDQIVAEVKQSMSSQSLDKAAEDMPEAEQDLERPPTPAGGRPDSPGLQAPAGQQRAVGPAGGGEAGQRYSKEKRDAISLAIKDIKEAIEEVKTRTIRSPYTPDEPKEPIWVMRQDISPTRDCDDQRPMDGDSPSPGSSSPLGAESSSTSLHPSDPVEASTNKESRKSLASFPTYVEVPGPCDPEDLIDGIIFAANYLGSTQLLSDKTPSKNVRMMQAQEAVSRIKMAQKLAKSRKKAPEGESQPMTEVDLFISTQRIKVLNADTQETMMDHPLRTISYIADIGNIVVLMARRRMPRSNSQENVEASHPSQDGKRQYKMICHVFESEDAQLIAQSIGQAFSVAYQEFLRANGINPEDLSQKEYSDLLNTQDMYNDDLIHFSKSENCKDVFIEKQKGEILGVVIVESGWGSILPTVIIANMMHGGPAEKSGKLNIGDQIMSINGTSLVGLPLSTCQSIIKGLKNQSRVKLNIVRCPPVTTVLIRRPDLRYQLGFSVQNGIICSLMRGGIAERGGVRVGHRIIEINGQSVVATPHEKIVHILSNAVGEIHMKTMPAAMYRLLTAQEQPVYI
Chain of Peroxisome proliferator-activated receptor gamma/Nuclear receptor coactivator 1 (P37231 whole entry): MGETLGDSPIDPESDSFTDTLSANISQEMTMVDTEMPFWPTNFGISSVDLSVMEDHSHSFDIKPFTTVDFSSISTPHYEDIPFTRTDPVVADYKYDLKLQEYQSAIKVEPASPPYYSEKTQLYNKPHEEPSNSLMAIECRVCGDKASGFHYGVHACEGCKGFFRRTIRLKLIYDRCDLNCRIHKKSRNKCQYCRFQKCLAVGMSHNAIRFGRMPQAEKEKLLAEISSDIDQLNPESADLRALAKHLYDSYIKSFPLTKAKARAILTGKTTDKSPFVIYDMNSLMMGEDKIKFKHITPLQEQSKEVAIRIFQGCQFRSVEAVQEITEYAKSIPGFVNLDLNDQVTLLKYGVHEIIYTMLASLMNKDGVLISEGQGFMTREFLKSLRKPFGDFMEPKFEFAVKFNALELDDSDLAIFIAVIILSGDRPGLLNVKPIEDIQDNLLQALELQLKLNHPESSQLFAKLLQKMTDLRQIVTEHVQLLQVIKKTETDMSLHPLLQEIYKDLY
Chain of Peroxisome proliferator-activated receptor gamma/Nuclear receptor coactivator 1 (Q15788 whole entry, further chain): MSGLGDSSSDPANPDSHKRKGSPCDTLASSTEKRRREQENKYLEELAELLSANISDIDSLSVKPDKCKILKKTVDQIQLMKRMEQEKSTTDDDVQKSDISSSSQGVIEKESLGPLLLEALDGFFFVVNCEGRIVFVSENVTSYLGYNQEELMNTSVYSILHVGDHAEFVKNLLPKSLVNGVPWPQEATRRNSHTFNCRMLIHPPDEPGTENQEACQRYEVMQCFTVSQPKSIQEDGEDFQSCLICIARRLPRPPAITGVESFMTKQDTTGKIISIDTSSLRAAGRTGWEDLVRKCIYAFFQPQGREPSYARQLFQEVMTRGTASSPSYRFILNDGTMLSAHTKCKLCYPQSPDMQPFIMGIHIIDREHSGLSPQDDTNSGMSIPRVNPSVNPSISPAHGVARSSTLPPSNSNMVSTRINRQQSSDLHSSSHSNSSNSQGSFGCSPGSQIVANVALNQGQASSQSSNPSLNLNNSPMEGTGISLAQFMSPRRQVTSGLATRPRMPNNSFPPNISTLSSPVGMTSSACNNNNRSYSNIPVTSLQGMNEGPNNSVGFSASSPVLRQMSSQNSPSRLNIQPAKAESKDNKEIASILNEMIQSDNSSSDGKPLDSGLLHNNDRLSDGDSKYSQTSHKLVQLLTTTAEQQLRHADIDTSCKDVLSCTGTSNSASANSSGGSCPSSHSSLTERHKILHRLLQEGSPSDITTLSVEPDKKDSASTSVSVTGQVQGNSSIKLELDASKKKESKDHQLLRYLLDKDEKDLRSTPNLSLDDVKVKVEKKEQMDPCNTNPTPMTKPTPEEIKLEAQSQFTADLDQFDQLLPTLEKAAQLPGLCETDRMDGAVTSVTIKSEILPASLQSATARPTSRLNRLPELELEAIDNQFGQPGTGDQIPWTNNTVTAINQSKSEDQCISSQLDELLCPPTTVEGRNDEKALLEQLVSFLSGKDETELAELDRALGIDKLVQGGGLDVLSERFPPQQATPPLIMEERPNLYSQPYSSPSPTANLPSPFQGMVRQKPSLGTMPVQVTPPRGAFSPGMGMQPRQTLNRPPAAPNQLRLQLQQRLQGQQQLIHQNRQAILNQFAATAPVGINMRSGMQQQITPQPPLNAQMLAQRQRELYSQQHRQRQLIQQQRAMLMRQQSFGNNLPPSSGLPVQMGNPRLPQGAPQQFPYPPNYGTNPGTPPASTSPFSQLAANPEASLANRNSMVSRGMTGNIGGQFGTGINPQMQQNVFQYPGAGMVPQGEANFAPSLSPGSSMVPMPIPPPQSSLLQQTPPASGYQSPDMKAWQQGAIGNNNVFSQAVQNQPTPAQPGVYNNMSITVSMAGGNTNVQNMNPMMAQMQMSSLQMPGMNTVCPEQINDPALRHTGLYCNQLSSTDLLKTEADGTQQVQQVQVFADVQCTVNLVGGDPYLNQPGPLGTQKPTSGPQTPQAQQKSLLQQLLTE

**Q.** With CCCCCCCCCCCCCCCCn1cc[n+](C)c1 as the compound, how does the EC50 [1] read?
**A.** 1.97 µM (active)

**Q.** What about the EC50 ([1]; Streptococcus sp. 'group A') of the same compound?
**A.** 1.72 µM (active)

**Q.** What about the EC50 [2] of the same compound?
**A.** 1.74 µM (active)

**Q.** What about the EC50 ([3]; NIH3T3) of the same compound?
**A.** 8.99 µM (active)

**Q.** And the EC50 ([3]; nih3t3)?
**A.** 8.81 µM (active)

**Q.** And the EC50 (Streptococcus)?
**A.** 4.64 µM (active)

**Q.** And the EC50 (Streptococcus; Streptococcus)?
**A.** 8.54 µM (active)

**Q.** And the IC50 [4]?
**A.** 11.4 µM (not active)

**Q.** What about the EC50 (Streptokinase A) of the same compound?
**A.** 5.97 µM (active) and > 150 µM (not active)

**Q.** Which EC50 ([1]; Streptococcus sp. 'group A') does the source give for O=C(Nc1ccccc1Cl)/C(Cl)=C(\Cl)[S+]([O-])c1ccccc1 (stereo not drawn) here?
**A.** 1.53 µM (active)

**Q.** What about the EC50 [2] of the same compound?
**A.** > 38 µM (not active)

**Q.** What about the EC50 (Streptococcus; Streptococcus) of the same compound?
**A.** 5.14 µM (active)

**Q.** What about the EC50 (Streptokinase A) of the same compound?
**A.** 331 nM (active)

**Q.** Which EC50 [5] does the source give for Cc1cc(C)nc(/N=c2/ssnc2Cl)c1 here?
**A.** > 79.4 µM (not active)

**Q.** And the EC50 [6]?
**A.** 25.8 µM (active)

**Q.** What about the IC50 [7] of the same compound?
**A.** 10.6 µM (active)

**Q.** Which AC50 [8] does the source give for Cc1ccc(C)c(S(=O)(=O)/N=C2\C=C(NS(=O)(=O)c3ccccc3)C(=O)c3ccccc32)c1 here?
**A.** > 20 µM (inactive)

**Q.** For O=C(NC1(O)C(=O)c2ccccc2C1=O)c1ccccc1, which AC50 [8] is on record?
**A.** 6.87 µM (active)
